A value given as a limit tells only on which side of the number the result lay.

Our source for the IC50 values is patent publication US10689331B2, “IDO inhibitors” (Bristol-Myers Squibb Company, priority 2015, dated 2020).

For the test, the target named is T1, human IDO1 (Homo sapiens, UniProt P14902).
T1 construct: expressed in transfected cells
T1 sequence (P14902 whole entry): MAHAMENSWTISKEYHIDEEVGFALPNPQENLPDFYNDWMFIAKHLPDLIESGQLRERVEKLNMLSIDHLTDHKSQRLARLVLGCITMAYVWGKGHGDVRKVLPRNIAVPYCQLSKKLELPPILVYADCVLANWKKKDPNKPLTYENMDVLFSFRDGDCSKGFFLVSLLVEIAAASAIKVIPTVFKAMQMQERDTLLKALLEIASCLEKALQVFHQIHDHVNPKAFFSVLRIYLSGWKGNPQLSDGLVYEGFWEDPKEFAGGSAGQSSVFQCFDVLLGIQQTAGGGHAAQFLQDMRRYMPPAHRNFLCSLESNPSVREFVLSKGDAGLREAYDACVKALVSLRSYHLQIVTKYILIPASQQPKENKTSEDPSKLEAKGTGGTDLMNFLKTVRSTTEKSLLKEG
Description: HEK Human IDO-1 inhibition assay (kynurenine readout, Ehrlich reagent, absorbance 490 nm). Format: cell-based. To be noted: human IDO1/HEK293 cells, incubated 20 hours with compound; 500 nM reference standard = 100% inhibition. Put shortly: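 HEK293 cells stably expressing human IDO1, treated with compound for 20 h at 37 °C in phenol red-free RPMI/10% FBS. Kynurenine detected after TCA (0.2% final, 50 °C, 30 min) by Ehrlich reagent absorbance at 490 nm; IC50 normalised to 500 nM reference standard (100%) and DMSO (0%).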
One may read the IC50 as the midpoint of a concentration-inhibition curve. In the case of `Cc1c(F)cccc1NC(=O)Nc1cc(OCC(=O)O)ccc1N(CC(C)C)C1CCCCC1` [Example 28, 2-(4-(cyclohexyl(isobutyl)amino)-3-(3-(3-fluoro-2-methylphenyl)ureido)phenoxy)acetic acid], the concentration for half-maximal inhibition (IC50) was no less than 100 nM. On to `COc1cc(F)c(NC(=O)Nc2cc(OCC(=O)O)ccc2N(CC(C)C)C2CCCCC2)cc1F` [Example 29, 2-(4-(cyclohexyl(isobutyl)amino)-3-(3-(2,5-difluoro-4-methoxy-phenyl)ureido)phenoxy)acetic acid], for which the IC50 is less than 100 nM. As to `Cc1ccc(F)cc1NC(=O)Nc1cc(OCC(=O)O)ccc1N(CC(C)C)C1CCCCC1` [Example 30, 2-(4-(cyclohexyl(isobutyl)amino)-3-(3-(5-fluoro-2-methylphenyl)ureido)phenoxy)acetic acid], the half-maximal inhibitory concentration (IC50) is no less than 100 nM. Take `CC(C)CN(c1ccc(OCC(=O)O)cc1NC(=O)Nc1ccc(F)c(F)c1)C1CCCCC1` [Example 31, 2-(4-(cyclohexyl(isobutyl)amino)-3-(3-(3,4-difluorophenyl)ureido)phenoxy)acetic acid]: the IC50 is less than 100 nM. `CC(C)CN(c1ccc(OCC(=O)O)cc1NC(=O)Nc1cc(F)cc(F)c1)C1CCCCC1` [Example 32, 2-(4-(cyclohexyl(isobutyl)amino)-3-(3-(3,5-difluorophenyl)ureido)phenoxy)acetic acid]: the half-inhibitory concentration (IC50) is no less than 100 nM. Consider `Cc1ccc(NC(=O)Nc2cc(OCC(=O)O)ccc2N(CC(C)C)C2CCCCC2)cc1F` [Example 33, 2-(4-(cyclohexyl(isobutyl)amino)-3-(3-(3-fluoro-4-methylphenyl)ureido)phenoxy)acetic acid], for which the IC50 was less than 100 nM. `COc1ccc(NC(=O)Nc2cc(OCC(=O)O)ccc2N(CC(C)C)C2CCCCC2)cc1F` [Example 34, 2-(4-(cyclohexyl(isobutyl)amino)-3-(3-(3-fluoro-4-methoxyphenyl)ureido)phenoxy) acetic acid]: the half-inhibitory concentration (IC50) was no less than 100 nM. With `CC(C)CN(c1ccc(OCC(=O)O)cc1NC(=O)Nc1ccc(C(F)(F)F)c(F)c1)C1CCCCC1` [Example 35, 2-(4-(cyclohexyl(isobutyl)amino)-3-(3-(3-fluoro-4-(trifluoromethyl)phenyl)ureido)phenoxy)acetic acid], the half-inhibitory concentration (IC50) was no less than 100 nM. For the compound `CC(C)CN(c1ccc(OCC(=O)O)cc1NC(=O)Nc1ccc(Cl)c(F)c1)C1CCCCC1` [Example 36, 2-(3-(3-(4-chloro-3-fluorophenyl)ureido)-4-(cyclohexyl(isobutyl)amino)phenoxy)acetic acid], the IC50 is less than 100 nM. The value for `CC(C)CN(c1ccc(OCC(=O)O)cc1NC(=O)Nc1cc(F)cc(Cl)c1)C1CCCCC1` [Example 37, 2-(3-(3-(3-chloro-5-fluorophenyl)ureido)-4-(cyclo-hexyl(isobutyl)amino)phenoxy) acetic acid] was no less than 100 nM; that for `Cc1cc(F)ccc1NC(=O)Nc1cc(OCC(=O)O)ccc1N(CC(C)C)C1CCCCC1` [Example 38, 2-(4-(cyclohexyl(isobutyl)amino)-3-(3-(4-fluoro-2-methylphenyl)ureido)phenoxy) acetic acid] was no less than 100 nM; that for `CC(C)CN(c1ccc(OCC(=O)O)cc1NC(=O)Nc1ccc(C#N)cc1)C1CCCCC1` [Example 39, 2-(3-(3-(4-cyanophenyl)ureido)-4-(cyclohexyl(isobutyl)amino)phenoxy)acetic acid] was no less than 100 nM. As for `Cc1ccc(N(C)C(=O)Nc2cc(OCC(=O)O)ccc2N(CC(C)C)C2CCCCC2)cc1` [Example 40, 2-(4-(cyclohexyl(isobutyl)amino)-3-(3-methyl-3-(p-tolyl)ureido)phenoxy)acetic acid], the IC50 is no less than 100 nM. Regarding `CC(C)CN(c1ccc(OCC(=O)O)cc1NC(=O)N(C)c1ccc(F)cc1)C1CCCCC1` [Example 41, 2-(4-(cyclohexyl(isobutyl)amino)-3-(3-(4-fluorophenyl)-3-methyl-ureido)phenoxy)acetic acid], the IC50 was no less than 100 nM. The value for `CCOC(=O)COc1ccc(N(CC(C)C)C2CCCCC2)c(NC(=O)Nc2ccc(Cl)cc2F)c1` [Example 42, ethyl 2-(3-(3-(4-chloro-2-fluorophenyl)ureido)-4-(cyclohexyl(isobutyl)amino)phenoxy)acetate] was less than 5 nM. `CC(C)CN(c1ccc(OCC(=O)O)cc1NC(=O)Nc1ccc(C#N)cc1F)C1CCCCC1` [Example 43, 2-(3-(3-(4-cyano-2-fluorophenyl)ureido)-4-(cyclohexyl(isobutyl)amino)phenoxy)acetic acid]: the IC50 is less than 5 nM.

Take `CC(C)CN(c1ccc(OCC(=O)O)cc1Nc1nc2ccccc2o1)C1CCCCC1` [Example 44, 2-(3-(benzo[d]oxazol-2-ylamino)-4-(cyclohexyl(isobutyl)amino)phenoxy)acetic acid]: the concentration for half-maximal inhibition (IC50) was no less than 100 nM. On to `CC(C)CN(c1ccc(OCC(=O)O)cc1N(C)C(=O)Nc1ccc(Cl)cc1F)C1CCCCC1` [Example 45], for which the IC50 is no less than 100 nM. Take `CC(C)CN(c1ccc(OCC(=O)NS(=O)(=O)N(C)C)cc1NC(=O)Nc1ccc(Cl)cc1F)C1CCCCC1` [Example 46, 2-(3-(3-(4-chloro-2-fluorophenyl)ureido)-4-(cyclohexyl(isobutyl)amino)phenoxy)-N—(N,N-dimethylsulfamoyl)acetamide]: the concentration for half-maximal inhibition (IC50) was less than 5 nM. The value for `CC(C)CN(c1ccc(OCC(=O)NS(=O)(=O)C2CC2)cc1NC(=O)Nc1ccc(Cl)cc1F)C1CCCCC1` [Example 47, 2-(3-(3-(4-chloro-2-fluorophenyl)ureido)-4-(cyclohexyl (isobutyl)amino)phenoxy)-N-(cyclopropyl-sulfonyl)acetamide] was less than 5 nM; that for `CC(C)CN(c1ccc(OCC(=O)NS(=O)(=O)C(C)(C)C)cc1NC(=O)Nc1ccc(Cl)cc1F)C1CCCCC1` [Example 48, N-(tert-butylsulfonyl)-2-(3-(3-(4-chloro-2-fluorophenyl)ureido)-4-(cyclohexyl(isobutyl)amino)phenoxy) acetamide] was less than 5 nM. The figure for `CC(C)CN(c1ccc(OCC(=O)NS(=O)(=O)c2cccs2)cc1NC(=O)Nc1ccc(Cl)cc1F)C1CCCCC1` [Example 49] is less than 5 nM.

`Cc1cc(NC(=O)Nc2cc(OCC(=O)NS(=O)(=O)C3CC3)ccc2N(CC(C)C)C2CCCCC2)no1` [Example 50, 2-(4-(cyclohexyl(isobutyl)amino)-3-(3-(5-methyl-isoxazol-3-yl)ureido)phenoxy)-N-(cyclopropylsulfonyl)acetamide]: the half-inhibitory concentration (IC50) is no less than 100 nM. `CC(C)CN(c1ccc(OCC(=O)NS(=O)(=O)N(C)C)cc1NC(=O)Nc1ccccc1F)C1CCCCC1` [Example 51, 2-(4-(cyclohexyl(isobutyl)amino)-3-(3-(2-fluoro-phenyl)ureido)phenoxy)-N—(N,N-dimethylsulfamoyl)acetamide]: the 50% inhibitory concentration (IC50) is less than 5 nM. Regarding `Cc1ccc(NC(=O)Nc2cc(OCC(=O)NS(=O)(=O)N(C)C)ccc2N(CC(C)C)C2CCCCC2)cc1` [Example 52, 2-(4-(cyclohexyl(isobutyl)amino)-3-(3-(p-tolyl)ureido)phenoxy)-N—(N,N-dimethylsulfamoyl)acetamide], the IC50 is less than 100 nM.

Regarding `Cc1ccc(NC(=O)Nc2cc(OCC(=O)NS(=O)(=O)C3CC3)ccc2N(CC(C)C)C2CCCCC2)cc1` [Example 53, 2-(4-(cyclohexyl(isobutyl)amino)-3-(3-(p-tolyl)ureido)phenoxy)-N-(cyclopropylsulfonyl)acetamide], the concentration for half-maximal inhibition (IC50) was less than 100 nM.
